Consider 14 compounds from US5216159A (priority 1991, dated 1993).

Counter-ions that a name gives are not always drawn.

In the first test the test system is benzodiazepine binding site.
Assay: not given
Conditions: cited from earlier work.
`CN1CCc2cc3c(cc2C1C1OC(=O)c2c1ccc1c2OCO1)OCO3` (single isomer, unassigned; (+)) [(+) bicuculline]: the “blockade of enhancement of benzodiazepine binding by GABA agonists” value is reported as “blocked”. For the compound `CN1CCc2cc3c(cc2C1C1OC(=O)c2c1ccc1c2OCO1)OCO3` (single isomer, unassigned; (-)) [(-) bicuculline], the “blockade of enhancement of benzodiazepine binding by GABA agonists” value is “much less active”.

The target in another test is GABAa receptor. Description: GABAa receptor binding assay ([3H]-RO15-1788 [3H-Flumanzenil] displacement, rat cortical tissue). The conditions noted are these: 0.5 nM 3H-RO15-1788, rat cortical tissue, 30 min at 4° C. Here is the method: The pharmaceutical utility of compounds of this invention are indicated by the following assay for GABAa receptor activity.
Assays are carried out as described in Thomas and Tallman (J. Bio. Chem. 156: 9838-9842, J. Neurosci. 3:433-440, 1983). Rat cortical tissue is dissected and homogenized in 25 volumes (w/v) of 0.05 M Tris HCl buffer (pH 7.4 at 4° C.). The tissue homogenate is centrifuged in the cold (4°) at 20,000×g for 20'. The supernatant is decanted and the pellet is rehomogenized in the same volume of buffer and again centrifuged at 20,000×g. The supernatant is decanted and the pellet is frozen at -20° C. overnight. The pellet is then thawed and rehomogenized in 25 volume (original wt/vol) of buffer and the procedure is carried out twice. The pellet is finally resuspended in 50 volumes (w/vol of 0.05 M Tris HCl buffer (pH 7.4 at […]).
Incubations contain 100 μl of tissue homogenate, 100 μl of radioligand 0.5 nM (^3 H-RO15-1788 [^3 H-Flumanzenil] specific activity 80 Ci/mmol), drug or blocker and buffer to a total volume of 500 μl. Incubations are carried for 30 min at 4° C. then are rapidly filtered through GFB filters to separate free and bound ligand. Filters are washed twice with fresh 0.05 M tris HCl buffer (pH 7.4 at 4° C.) and counted in a liquid scintillation counter. 1.0 μM diazepam is added to some tubes to determine nonspecific binding. Data are collected in triplicate determinations, averaged and % inhibition of total specific binding is calculated. Total Specific Binding=Total-Nonspecific. In some cases, the amounts of unlabeled drugs is varied and total displacement curves of binding are carried out. Data are converted to a form for the calculation of IC50 and Hill Coefficient (nH).
The term IC50 denotes the concentration needed to halve the response being measured. `c1ccc(-c2ncc3[nH]c4c(c3n2)CCCC4)cc1` [Compound 1, 2-Phenyl-6,7,8,9-tetrahydro-5H-indolo[3,2-d]-pyrimidine] displayed a 50% inhibitory concentration (IC50) of 100 nM. This counts as sub-micromolar. Consider `c1ccc(-c2ncc3[nH]c4c(c3n2)CCC4)cc1` [Compound 2, 2-Phenyl-cyclopent(g)-5H-pyrrolo[3,2-d]-pyrimidine], for which the concentration for half-maximal inhibition (IC50) is 110 nM. Still for that read-out and setting: in the case of `c1ccc(-c2ncc3[nH]c4c(c3n2)CCCCC4)cc1` [Compound 3, 2-Phenyl-cyclohept(g)-pyrrolo[3,2-d]-5H-pyrimidine] it was 1000 nM.

Regarding `c1ccc(COC2CCc3[nH]c4cnc(-c5ccccc5)nc4c3C2)cc1` (centres unmarked) [Compound 5, 2-Phenyl-8-benzyloxy-6,7,8,9-tetrahydro-5H-indolo[3,2-d]-pyrimidine], the 50% inhibitory concentration (IC50) came to 100 nM. This IC50 is about 10-fold lower than that of the compound before. Turning to `COc1ccc(-c2ncc3[nH]c4c(c3n2)CCCC4)cc1` [Compound 7, 2-(4-Methoxyphenyl)-6,7,8,9-tetrahydro-5H-indolo[3,2-d]-pyrimidine], the half-maximal inhibitory concentration (IC50) was 39 nM. This IC50 lies about 2.6-fold lower than the previous one. On the same count and under the same terms, then `COc1ccc(-c2ncc3[nH]c4c(c3n2)CCC4)cc1` [Compound 9, 2-(4-Methoxyphenyl)-cyclopent(g)-5H-pyrrolo[3,2-d]-pyrimidine], with 18 nM; and `c1csc(-c2ncc3[nH]c4c(c3n2)CCCC4)c1` [Compound 10, 2-(2-Thienyl)-6,7,8,9-tetrahydro-5H-indolo[3,2-d]-pyrimidine], with 9 nM. Still for that read-out and setting: in the case of `CN1C(=O)CCC12CCc1[nH]c3cnc(-c4ccccc4)nc3c1C2` (centres unmarked) [Compound 11, 1-Methyl-2-phenyl-5,6,7,9-tetrahydro-spiro[indolo[3,2-d]-pyrimidine-2',8-pyrrolidin-5'-one]] it was 50 nM; in that of `c1ccc(-c2ncc3[nH]c4c(c3n2)CC2(CC4)OCCO2)cc1` [Compound 12, 2'-Phenyl-5',6',7',9'-tetrahydro-spiro[(1,3)dioxolane-2,8'-indolo[3,2-d]-pyrimidine]], 25 nM. Still for that read-out and setting: in the case of `COc1ccc(-c2ncc3[nH]c4c(c3n2)CC2(CCCO2)CC4)cc1` (centres unmarked) [Compound 15, 2-(4-Methoxyphenyl)-4,5,5',6',7',9'-hexahydro-spiro[furan-2,8'(3H)-indolo[3,2-d]-pyrimidine]] it was 50 nM; in that of `c1ccc(-c2ncc3[nH]c4c(c3n2)COCC4)cc1` [Compound 26, 2-Phenyl-5,6,7,9-tetrahydro-5H-pyrano[4,3-b]pyrimidino[4,5-d]-pyrrole], 400 nM. The compound `c1ccc(CN2CCc3[nH]c4cnc(-c5ccccc5)nc4c3C2)cc1` [Compound 32, 8-Benzyl-2-phenyl-5,6,7,9-tetrahydro-5H-pyrido[4,3-b]-pyrimidino[4,5-d]-pyrrole monohydrochloride] returned an IC50 of 13 nM.
